Experimental data taken from PMC3076090 (Pharmaceutical research, 2010).
Like-named read-outs stand apart in the source and are kept apart here.

What was measured:
blood-brain barrier [1] = test: in situ rat brain perfusion, pH-dependent; conditions: for Kin: 30-s perfusion; for PcS (pH-CRE): new pH-CRE method; for log(Kin/S) (= log Pe): S = 100 cm^2·g^−1; for PcS (CRE): traditional Crone-Renkin equation; for Fpf (cerebrovascular flow velocity refined from the compound's Kin-pH data): weighted nonlinear regression, Eq. 4
[2] = intrinsic PAMPA permeability, 10% porcine brain extract lipids in alkane; cited from earlier work
[3] = measured octanol-water partition coefficients from multiple sources; cited from earlier work
blood-brain barrier [4] = conditions: pH 7.4; S = 100 cm^2·g^−1; rat; cited from earlier work
[5] = pKa determination at 37°C; assay type: physicochemical
blood-brain barrier [6] = conditions: mouse in situ brain perfusion; cited from earlier work
blood-brain barrier [7] = conditions: male, Sprague-Dawley, rat, 30 s
blood-brain barrier [8] = conditions: typical values; cited from earlier work

Molecule: CN(C)CCC=C1c2ccccc2CCc2ccccc21 [Amitriptyline]
- Kin (blood-brain barrier [1]; dosing group B-1, pH 8.0, 10 mM bicine in KRB): 0.044 ± 0.013 mL/g/s
- Kin (blood-brain barrier [1]; dosing group B-2, pH 8.5, 10 mM bicine in KRB): 0.045 ± 0.014 mL/g/s
- PcS (pH-CRE) (blood-brain barrier [1]; pH 7.4): 2997
- log(Kin/S) (= log Pe) (blood-brain barrier [1]; pH 8.0, this work): −3.35 ± 0.13 cm·s^−1
- PcS (pH-CRE) (blood-brain barrier [1]; pH 8.0): 10,974
- PcS (CRE) (blood-brain barrier [1]; pH 8.0): 549
- log(Kin/S) (= log Pe) (blood-brain barrier [1]; pH 8.5, this work): −3.35 ± 0.13 cm·s^−1
- PcS (pH-CRE) (blood-brain barrier [1]; pH 8.5): 28,173
- Fpf (cerebrovascular flow velocity refined from the compound's Kin-pH data) (blood-brain barrier [1]): 0.051 ± 0.003 mL.g^−1.s^−1
- log Po^PAMPA−BBB [2]: −1.2
- log POCT [3]: 4.6
- log(Kin/S) (= log Pe) (blood-brain barrier [4]): −3.27 ± 0.06 cm·s^−1
- pKa [5]: 8.92 ± 0.1
- Pgp effect ratio Kin^knockout/Kin^wildtype (blood-brain barrier [6]): 1.0

Molecule: CNCC[C@@H](Oc1ccccc1C)c1ccccc1 [Atomoxetine]
- Kin (blood-brain barrier [1]; dosing group B-3, pH 8.0, 10 mM bicine in KRB): 0.026 ± 0.010 mL/g/s
- Kin (blood-brain barrier [1]; dosing group B-4, pH 8.5, 10 mM bicine in KRB, no CsA): 0.032 ± 0.015 mL/g/s
- PcS (pH-CRE) (blood-brain barrier [1]; pH 7.4): 805
- log(Kin/S) (= log Pe) (blood-brain barrier [1]; pH 8.0, this work): −3.59 ± 0.16 cm·s^−1
- PcS (pH-CRE) (blood-brain barrier [1]; pH 8.0): 3134
- PcS (CRE) (blood-brain barrier [1]; pH 8.0): 549
- log(Kin/S) (= log Pe) (blood-brain barrier [1]; pH 8.5, this work): −3.50 ± 0.20 cm·s^−1
- PcS (pH-CRE) (blood-brain barrier [1]; pH 8.5): 9295
- Fpf (cerebrovascular flow velocity refined from the compound's Kin-pH data) (blood-brain barrier [1]): 0.031 ± 0.002 mL.g^−1.s^−1
- log Po^PAMPA−BBB [2]: −1.8
- log POCT [3]: 3.3
- log(Kin/S) (= log Pe) (blood-brain barrier [4]): −3.49 ± 0.12 cm·s^−1
- pKa [5]: 9.5 ± 0.05

Molecule: Cc1cc(=O)n(-c2ccccc2)n1C [Antipyrine]
- log Po^PAMPA−BBB [2]: −5.3
- log POCT [3]: 0.6
- Kin (range over dosing groups) (blood-brain barrier [7]; in vivo, pH 5.5): 0.0042 to 0.0082 mL/g/s
- PcS (CRE) (blood-brain barrier [7]; in vivo, pH 5.5): 63
- PcS (pH-CRE) (blood-brain barrier [7]; in vivo, pH 5.5): 77
- PcS (CRE) (blood-brain barrier [7]; in vivo, pH 6.5): 54
- PcS (pH-CRE) (blood-brain barrier [7]; in vivo, pH 6.5): 77
- Kin (blood-brain barrier [7]; in vivo, pH 7.4): 82 ± 23 10^−4 mL.g^−1.s^−1
- PcS (CRE) (blood-brain barrier [7]; in vivo, pH 7.4): 92
- PcS (pH-CRE) (blood-brain barrier [7]; in vivo, pH 7.4): 77
- PcS (CRE) (blood-brain barrier [7]; in vivo, pH 8): 80
- PcS (pH-CRE) (blood-brain barrier [7]; in vivo, pH 8): 77
- PcS (CRE) (blood-brain barrier [7]; in vivo, pH 8.5): 70
- PcS (pH-CRE) (blood-brain barrier [7]; in vivo, pH 8.5): 77
- log Po (intrinsic, neutral molecule, luminal permeability) (blood-brain barrier [7]; po): −4.13 ± 0.02 cm.s^−1

Molecule: inulin
- in vivo Pc (paracellular) (blood-brain barrier [8]): ~0.04 10^−6 cm·s^−1

Molecule: CN(C)CCCN1c2ccccc2CCc2ccccc21 [Imipramine]
- Kin (blood-brain barrier [1]; dosing group B-5, pH 7.4, KRB): 0.031 ± 0.021 mL/g/s
- Kin (blood-brain barrier [1]; dosing group B-6, pH 8.5, 10 mM bicine in KRB): 0.032 ± 0.002 mL/g/s
- PcS (pH-CRE) (blood-brain barrier [1]; pH 7.4): 1416
- PcS (CRE) (blood-brain barrier [1]; pH 7.4): 1437
- PcS (pH-CRE) (blood-brain barrier [1]; pH 8.5): 15,260
- PcS (CRE) (blood-brain barrier [1]; pH 8.5): 2150
- Fpf (cerebrovascular flow velocity refined from the compound's Kin-pH data) (blood-brain barrier [1]): 0.032 mL.g^−1.s^−1
- pKa [5]: 9.23 ± 0.06

Molecule: COc1ccc2c(c1)c(CC(=O)O)c(C)n2C(=O)c1ccc(Cl)cc1 [Indomethacin]
- Kin (blood-brain barrier [1]; dosing group A-1, pH 5.5, 10 mM MES in KRB): 0.032 ± 0.008 mL/g/s
- Kin (blood-brain barrier [1]; dosing group A-2, pH 6.5, 10 mM MES in KRB): 0.004 ± 0.001 mL/g/s
- Kin (blood-brain barrier [1]; dosing group A-2, pH 6.5, 10 mM MES in KRB, listed as indomethacin): 0.0042 ± 0.0008 mL/g/s
- log(Kin/S) (= log Pe) (blood-brain barrier [1]; pH 5.5, this work): −3.50 ± 0.10 cm·s^−1
- PcS (pH-CRE) (blood-brain barrier [1]; pH 5.5): 399
- PcS (CRE) (blood-brain barrier [1]; pH 5.5): 400
- log(Kin/S) (= log Pe) (blood-brain barrier [1]; pH 6.5, this work (sertraline with 5 µM CsA)): −4.39 ± 0.08 cm·s^−1
- PcS (pH-CRE) (blood-brain barrier [1]; pH 6.5): 42
- PcS (CRE) (blood-brain barrier [1]; pH 6.5): 42
- Fpf (cerebrovascular flow velocity refined from the compound's Kin-pH data) (blood-brain barrier [1]): 0.081 mL.g^−1.s^−1
- log Po^PAMPA−BBB [2]: −2.7
- log POCT [3]: 3.5

Molecule: CN[C@H]1CC[C@@H](c2ccc(Cl)c(Cl)c2)c2ccccc21 [Sertraline]
- log POCT [3]: 4.9

Molecule: OC[C@H]1O[C@@](CO)(O[C@H]2O[C@H](CO)[C@@H](O)[C@H](O)[C@H]2O)[C@@H](O)[C@@H]1O [sucrose]
- in vivo Pc (paracellular) (blood-brain barrier [8]): about 0.15 10^−6 cm·s^−1

Molecule: CNCCCC12CCC(c3ccccc31)c1ccccc12 [Maprotiline]
- Kin (blood-brain barrier [1]; dosing group B-7, pH 8.0, 10 mM bicine in KRB): 0.052 ± 0.011 mL/g/s
- Kin (blood-brain barrier [1]; dosing group B-8, pH 8.5, 10 mM bicine in KRB): 0.036 ± 0.013 mL/g/s
- log(Kin/S) (= log Pe) (blood-brain barrier [1]; pH 7.4, this work): −3.48 ± 0.11 cm·s^−1
- PcS (pH-CRE) (blood-brain barrier [1]; pH 7.4): 591
- PcS (CRE) (blood-brain barrier [1]; pH 7.4): 580
- log(Kin/S) (= log Pe) (blood-brain barrier [1]; pH 8.0, this work): −3.29 ± 0.09 cm·s^−1
- PcS (pH-CRE) (blood-brain barrier [1]; pH 8.0): 2335
- log(Kin/S) (= log Pe) (blood-brain barrier [1]; pH 8.5, this work): −3.44 ± 0.15 cm·s^−1
- PcS (pH-CRE) (blood-brain barrier [1]; pH 8.5): 7234
- PcS (CRE) (blood-brain barrier [1]; pH 8.5): 691
- Fpf (cerebrovascular flow velocity refined from the compound's Kin-pH data) (blood-brain barrier [1]): 0.047 ± 0.006 mL.g^−1.s^−1
- log Po^PAMPA−BBB [2]: −0.6
- log POCT [3]: 5.1
- pKa [5]: 10.01 ± 0.01
